Measured values reported in US11707537B2, “Conformational restriction of cyanine fluorophores in far-red and near-IR range” (The United States of America, as represented by the …, priority 2017, dated 2023).
Marks after values point to notes of the source that are not given here.

Columns and labels:
Type in all cases: physicochemical
[1] = Absorbance and molar absorption coefficient (Beer's law); details: for shift in λmax: relative to unrestricted compound 10
Source text: (§1) All commercially obtained reagents were used as received. 2,3,3-trimethyl indoline (S1), malonaldehyde bis(phenylimine) monohydrochloride, Grubb's 2nd generation and Hoyveda-Grubbs 2nd generation catalysts were purchased from Sigma-Aldrich (St. Louis, Mo.). Acrolein dimethyl acetal (2) was purchased from TCI America (Portland, Oreg.). 4-hydrazinylbenzoic acid (S5) was ordered from Oakwood Chemical (Estill, S.C.). 2-(2-bromoethyl)-1,3-dioxolane was purchased from Acros Organics (Geel, Belgium). NH2-PEG8-COOH was purchased from Thermo Scientific (Waltham, Mass.). Aminophalloidin tosylate was purchased from Enzo, Inc. (Farmingdale, N.Y.). Compounds S2, S4, and S8 were synthesized according to known procedures (Hanessian et al., J. Am. Chem. Soc. 2004, 126 (19), 6064-71; Hall et al., Nucleic Acids Res. 2012, 40 (14), e108; Park et al., Bioconjugate Chem. 2012, 23 (3), 350-362). Normal phase (60 Å, 20-40 m, RediSep® Rf Gold® silica or 60 Å, 35-70 m, RediSep® Rf silica) and reversed phase (100 Å, 20-40 micron particle size, RediSep® Rf Gold® Reversed-phase C18 or C18Aq) flash column chromatography was performed on a CombiFlash© Rf 200i (Teledyne Isco, Inc., Lincoln, Nebr.). Reversed-phase preparative HPLC was performed using an Agilent 1260 Infinity II LC system utilizing a SunFire Prep C18 column (100 Å, 5 m, 10×150 mm) obtained from Waters, Co (Milford, Mass.). High-resolution LC/MS analyses were conducted on a Thermo-Fisher LTQ-Orbitrap-XL hybrid mass spectrometer system with an Ion MAX API electrospray ion source in negative ion mode. Analytical LC/MS was performed using a Shimadzu LCMS-2020 Single Quadrupole utilizing a Kinetex C18 column (100 Å, 2.6 m, 2.1×50 mm) obtained from Phenomenex, Inc (Torrance, Calif.). Runs employed a gradient of 0-90% MeCN/0.1% aqueous formic acid over 4.5 min at a flow rate of 0.2 mL/min. ^1H NMR and ^13C NMR spectra were recorded on Bruker spectrometers (at 400 or 500 MHz or at 100 or 125 MHz) and are reported relative to deuterated solvent signals. Data for ^1H NMR spectra are reported as follows: chemical shift (6 ppm), multiplicity, coupling constant (Hz), and integration. Data for ^13C NMR spectra are reported in terms of chemical shift. Absorbance curves were obtained on a Shimadzu UV-2550 spectrophotometer operated by UVProbe 2.32 software. Molar absorption coefficients (F) were determined in PBS (50 mM, pH 7.4) or methanol (MeOH) using Beer's law, from plots of absorbance vs. concentration. Measurements were performed in 10 mm path length quartz cuvettes (Hellma 111-QS) that were maintained at room temperature, and reported values are averages (n≥3). Fluorescence traces were recorded on a PTI QuantaMaster steady-state spectrofluorimeter operated by FelixGX 4.2.2 software, with 4 nm excitation and emission slit widths, and a 0.1 s integration rate. A Quantaurus-QY spectrometer (Hamamatsu, model C11374) was used to determine absolute fluorescence quantum yields (ΦF) (Suzuki et al., Phys. Chem. Chem. Phys. 112009, 9850-9860). This instrument uses an integrating sphere to measure photons absorbed and emitted by a sample. Measurements were carried out at a concentration of 250 nM in either MeOH or PBS (50 mM, pH 7.4) and self-absorption corrections were performed using the instrument software. Reported values are averages (n≥5). Data analysis and curve fitting were performed using MS Excel 2011 and GraphPad Prism 7. Light intensity measurements were performed with a Thorlabs PM200 optical power and energy meter fitted with an S120VC standard Si photodiode power sensor (200-1100 nm, 50 nW-50 mW). See JOC Standard Abbreviations and Acronyms for abbreviations (http://pubs.acs.org/paragonplus/submission/joceah/-joceah_abbreviations.pdf).

[2] = Fluorescence emission and fluorescence quantum yield
Source text: as §1, with “A Quantaurus-QY spectrometer (Hamamatsu, model C11374) was used to determine absolute fluorescence quantum yields (ΦF) (Suzuki et al., Phys.” left out, “Measurements were carried out at a concentration of 250 nM in either MeOH or PBS (50 mM, pH 7.4) and self-absorption corrections were performed using the instrument software.” left out

[3] = Fluorescence lifetime; details: for solvent viscosity sensitivity of fluorescence lifetime and quantum yield: solvents of Table 2
[4] = TCEP addition, formation of phosphine-polyene adducts; details: 10 μM, TCEP in Tris (0.20 M, pH 9.0), absorbance at λmax
Protocol: FIG. 9 is a graph showing the effect of TCEP addition on absorbance of compound 7 and AF647 (10 μM each). Absorbance at λmax (compound 7 at 670 nm and AF647 at 650 nm) as a function of TCEP concentration in Tris (0.20 M, pH 9.0).
The formation of phosphine and thiol adducts in chemical and single molecule imaging contexts was also evaluated. TCEP (tris(2-carboxyethyl)phosphine) was add to compound 7 and AF647 (Alexa Fluor 647, available through ThermoFisher Scientific) (10 μM each) (Vaughan et al., JACS 2013, 135(4):1197-1200). Absorbance at λmax (compound 7 at 670 nm and AF647 at 650 nm) as a function of TCEP concentration in Tris (0.20 M, pH 9.0). Compound 7 (circles) appeared resistant to the formation of polyene-heteroatom adducts (FIG. 9).

[5] = Temperature dependence of fluorescence emission; details: in ethanol
Source text: FIG. 7 is a graph showing the temperature dependence of fluorescence emission from compounds 4 (squares) and 10 (circles) in ethanol.
This is also due to photoisomerization in compound 10, which becomes more efficient at higher temperatures. The substantially longer lifetimes of compounds 4 and 7 relative to the unrestrained cyanine 10 point to significant potential for fluorescence lifetime imaging microscopy (FLIM).

CC1(C)C2=C3C=C4C=C5C6=[N+](CC[C@H]5O[C@H]4C[C@H]3CCN2c2ccc(S(=O)(=O)[O-])cc21)c1ccc(C(=O)O)cc1C6(C)C [Compound 7]
λmax ([1]; in pH 7.4 PBS): 670^b nm | ε ([1]; no solvent footnote on this cell (PBS or methanol)): 190,000 M^−1cm^−1 | shift in λmax [1]: approximately 25 nm | λem ([2]; in pH 7.4 PBS): 683^b nm | τ ([3]; in H2O): 1.7^c ns | solvent viscosity sensitivity of fluorescence lifetime and quantum yield [3]: largely solvent viscosity insensitive | formation of polyene-heteroatom adducts [4]: resistant

CC1(C)C2=C3C=C4C=C5C6=[N+](CC[C@H]5O[C@H]4C[C@H]3CCN2c2ccccc21)c1ccccc1C6(C)C [Compound 4]
ε ([1]; in methanol): 206,000 M^−1cm^−1 | λmax ([1]; in methanol): 662 nm | shift in λmax [1]: approximately 25 nm | ΦF ([2]; Acetone, calculated by relative method): 0.90 | ΦF ([2]; EtOH, calculated by relative method): 0.68 | ΦF ([2]; Glycerol, calculated by relative method): 0.66 | ΦF ([2]; MeCN, calculated by relative method): 0.92 | λem ([2]; in methanol): 677 nm | ΦF ([2]; in methanol (MeOH), integrating sphere): 0.69 | τ ([3]; Acetone): 2.9 ns | τ ([3]; EtOH): 2.5 ns | τ ([3]; Glycerol): 2.3 ns | τ ([3]; MeCN): 2.8 ns | τ ([3]; in methanol (MeOH)): 2.5 ns | solvent viscosity sensitivity of fluorescence lifetime and quantum yield [3]: largely solvent viscosity insensitive | temperature sensitivity of fluorescence emission [5]: insensitive to temperature
